# Key:
# Assay type in all cases: in vivo, maize
# wild type gametes [1] = assay: Treated hemizygous plants selfed; progeny scored for level of zygosity via QtPCR
# Description: (§1) A series of crosses were made from the treated plants to identify the gamete rouging effects of glyphosate on both pollen and ovules. To characterize the effects on pollen, heterozygous plants treated with glyphosate were crossed onto a wild type inbred. To characterize the effect of glyphosate on ovules, non-treated wild type pollen was crossed to heterozygous plants treated with glyphosate. Finally, the treated heterozygous plants were selfed and tested for zygosity via quantitative PCR.
# In the second method of analysis, the glyphosate resistant selfed plants were grown in the field and leaf punched at the V8 stage of development. Leaf tissues were then frozen and scored for their level of zygosity according to standard PCR protocols for glyphosate resistance. The data from the progeny tests was arc sine transformed and submitted to a common analysis of variance. Since the F-test for overall treatments was highly significant, tests of significance between the controls and the various treatments were also conducted.
# Plants hemizygous for glyphosate resistance were sprayed with glyphosate and then selfed. The progeny were then scored for level of zygosity via QtPCR. While the results from PCR corroborate data from the leaf dip assays, the magnitude of the response is less (as expressed in FIG. 10).
# wild type ovules = assay: Non-treated wild type pollen crossed to treated heterozygous plants; progeny leaf dip test
# Description: (§2) Four row plots of a heterozygous inbred for glyphosate resistance were established. At the V10, V12, V14 and V10+V14 stages of plant development, glyphosate was broadcast to the center two rows. The WeatherMax glyphosate formulation was applied at 0, 1.6 and 3.2 l/Ha, such rates corresponding to 0, 1 and 2 times the normal commercial rates in corn production. To assure there was no glyphosate drift on the non-treated controls, non-treated plants were separated by 16 border rows.
# as §1
# (§3) The progeny of the various crosses from Example 2 were evaluated by two methods. In the first method, 25 seeds per replication (4 replications in total) were planted into rag dolls and grown at 25° C. in darkness four days. After this time, the rag dolls were transferred to a greenhouse to allow the shoots to turn green. After four days in the greenhouse, seedlings for each rag doll were dipped in a 2% v/v solution of RoundUp Ultra (concentration corresponding to common concentrations in spray applications at the field level). After one week, individual plants were rated as normal, dead or abnormal. Normal plants were assumed to carry the gene for tolerance to glyphosate, dead plants were assumed to be wild type.
# The effects of glyphosate on wild type ovules were less pronounced than for pollen gametes (as expressed in FIG. 8). In the control treatment, untreated heterozygous plants were pollinated with homozygous wild type pollen. Expected segregation ratios for the progeny of this cross would be 50% resistant and 50% susceptible. Here, the control progeny segregated at 54% resistant, statistically equal to the expected ratio of 50%. […] At the highest rate of glyphosate, the segregation of progeny was clearly disturbed. High rates applied at the V14 stage produced progeny nearly 100% resistant, while applications made before V14 were intermediate.
# non-transgenic gametes = assay: Field application of herbicide to hemizygous glyphosate resistant plants at V12-V19; crosses, progeny seedlings sprayed, survivors counted, chi square of segregation ratios
# Protocol: The elimination of non-transgenic gametes was also tested at the V12-V19 stages. Meiosis sorted the transgene of a diploid hemizygous microsporophyte or macrosporophyte into one-half of the gametes. The resulting transgenic construct contained a gene conferring plant resistance or tolerance to a specific herbicide, namely glyphosate. Application of the herbicide treatments at various growth phases eliminated gametes lacking the transgenic construct.
# Glyphosate treatments included: V12, V17, V19, V15+V17, and V17+V19. Each application, included splits 3 quarts/A. Only resistant plants were sprayed. Glufosinate treatments included: V12, V17, V18, V19, V15+V17, and V17+V19. Each application, included splits 1.5 quarts/A. Only resistant plants were sprayed.
# Pollination of the sprayed resistant plants included: 4 selfed, 4 pollinations from unsprayed resistant, 4 pollinations from susceptible. Pollination of the unsprayed resistant plants included: 4 selfed, 4 pollinations from sprayed resistant, 4 pollinations from susceptible. […]
# Survivors were counted and chi square analysis performed to determine whether segregation ratios deviated from the null hypothesis (e.g., 75:25 resistant phenotype for selfs or crosses within the resistant hemizygous hybrids, 50:50 resistant phenotype for crosses between resistant and susceptible hybrids, or 100% mortality for susceptible selfed seed).
# wild type pollen = assay: Treated heterozygous plants crossed onto wild type inbred; progeny leaf dip test (rag doll, 2% v/v RoundUp Ultra)
# Description: as §2, §1, §3
# The crosses separated the effects of glyphosate on pollen and ovule gametes. To separate effects on pollen, heterozygous plants were sprayed with glyphosate and pollen collected from treated plants was crossed onto homozygous wild type plants. […]
# wild type gametes [2] = assay: Treated heterozygous plants selfed; progeny leaf dip test; details: all treatments except V12 at the lowest rate, non-treated 75% (FIG. 9)
# Description: as §2, §1
# The progeny of the various crosses from Example 2 were evaluated by two methods. In the first method, 25 seeds per replication (4 replications in total) were planted into rag dolls and grown at 25° C. in darkness four days. After this time, the rag dolls were transferred to a greenhouse to allow the shoots to turn green. […]
smiles,measurement,setting,value
O=C(O)CNCP(=O)(O)O [glyphosate],ratio of homozygous wild type plants in selfed progeny (QtPCR),wild type gametes [1]; sprayed then selfed (FIG. 10),significantly reduced the ratio of homozygous wild type plants
same,percentage of homozygous glyphosate resistant plants in selfed progeny (QtPCR),wild type gametes [1]; two pass applications at the highest rates (FIG. 10),produced the greatest percentage of homozygous glyphosate resistant plants
same,progeny resistant to glyphosate,"wild type ovules; high rates applied at V14, expected 50% if no effect (FIG. 8)",~100%
same,progeny resistant to glyphosate,"wild type ovules; highest rate, applications made before V14 (FIG. 8)",intermediate
same,segregation of progeny,"wild type ovules; treated at V10 and V12 at the lowest rate, pollinated with wild type pollen (FIG. 8)",segregated as expected if glyphosate had no affect on wild type ovules
same,progeny resistant to glyphosate,wild type ovules; two pass program V10+V14 (FIG. 8),~100%
same,elimination of non-transgenic gametes,"non-transgenic gametes; application at V12, 3 quarts/A, glyphosate resistant plants (FIG. 1)",eliminated most non-transgenic female and male gametes
same,elimination of non-transgenic gametes,"non-transgenic gametes; application at V15 or later, 3 quarts/A, glyphosate resistant plants (FIGS. 2-5)",primarily eliminated non-transgenic female gametes
same,effect on wild type pollen: dependence on rate or time of application,"wild type pollen; 1.6 vs 3.2 l/Ha, V10, V12, V14, V10+V14",not affected by rate or time of application
same,rouging of wild type pollen (leaf dip test),"wild type pollen; V10, V12, V14, V10+V14, 1.6 and 3.2 l/Ha (FIG. 7)",highly effective in rouging wild type pollen
same,progeny resistant to glyphosate,"wild type pollen; treated plants crossed to wild type ovules, all rates and timings, expected 50% if no effect (FIG. 7)",~100%
same,progeny resistant to glyphosate,wild type gametes [2],~100%

# — US20150082479A1, “CHEMICAL SELECTION OF RESISTANT GAMETES OF PLANTS IN THE FIELD” (PIONEER HI BRED INTERNATIONAL INC, priority 2008, published 2015)
